From ChEMBL document CHEMBL5143597, “Design and synthesis of novel spirocyclic carboxylic acids as potent and orally bioavailable DGAT1 inhibitors and their biological evaluation” (Bioorg Med Chem Lett, 2022)
Calls of active or inactive are those of the source. The rule behind the calls is not given here.

Experiments:
Mus musculus [1] = test: In vivo inhibition of DGAT1 in C57BL/6 mouse model of acute lipid challenge assessed as reduction in chylomicron derived plasma triglyceride excursion at 3 to 10 mg/kg, po as corn oil bolus by Oral lipid tolerance test relative to control; type: functional, organism-based; conditions: dose 3-10 mg/kg
Mus musculus [2] = test: In vivo inhibition of DGAT1 in C57BL/6 mouse model of acute lipid challenge assessed as reduction in AUC plasma triglyceride level at 3 to 10 mg/kg, po as corn oil bolus by Oral lipid tolerance test relative to control; type: functional, organism-based; conditions: dose 3-10 mg/kg
[3] = target: T1, Diacylglycerol O-acyltransferase 1 (Homo sapiens, UniProt O75907); test: Inhibition of human DGAT1 in serum starved HEK293 cells assessed as inhibition of triglyceride synthesis incubated for 20 mins followed by 13C-addition of 13C-oleic acid pre-complexed with BSA for 120 mins by LC-MS-based mass spectrophotometric analysis; type: cell-based
T1 sequence (O75907 whole entry): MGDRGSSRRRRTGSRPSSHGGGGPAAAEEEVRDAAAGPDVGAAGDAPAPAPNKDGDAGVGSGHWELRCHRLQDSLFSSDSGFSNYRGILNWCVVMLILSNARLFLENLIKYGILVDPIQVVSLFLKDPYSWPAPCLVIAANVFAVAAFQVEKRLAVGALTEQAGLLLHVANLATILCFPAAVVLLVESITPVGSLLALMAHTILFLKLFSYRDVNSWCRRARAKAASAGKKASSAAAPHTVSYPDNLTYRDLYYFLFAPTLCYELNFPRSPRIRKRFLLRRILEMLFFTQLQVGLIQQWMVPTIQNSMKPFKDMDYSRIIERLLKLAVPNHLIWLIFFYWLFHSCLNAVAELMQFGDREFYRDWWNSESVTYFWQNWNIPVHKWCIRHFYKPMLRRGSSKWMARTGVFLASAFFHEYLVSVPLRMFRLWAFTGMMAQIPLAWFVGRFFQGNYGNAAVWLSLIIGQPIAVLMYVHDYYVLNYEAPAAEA

[4] = Metabolic stability in rat liver microsomes assessed as parent compound remaining at 1 uM and measured at 30 mins by LC-MS/MS analysis; type: ADME, Microsome; conditions: read-out: Stability
[5] = Metabolic stability in mouse liver microsomes assessed as parent compound remaining at 1 uM and measured at 30 mins by LC-MS/MS analysis; type: ADME, Microsome; conditions: read-out: Stability
[6] = Metabolic stability in human liver microsomes assessed as parent compound remaining at 1 uM and measured at 30 mins by LC-MS/MS analysis; type: ADME, Microsome; conditions: read-out: Stability
hERG (KCNH2) = hERG (KCNH2) (Homo sapiens, UniProt Q12809); test: Displacement of [3H]astemizole from human ERG expressed in HEK293 cell membrane at 30 uM for 2 hrs by Radiometric displacement assay; type: toxicity; conditions: HEK293 cell membranes that express hERG, probe [3H]astemizole
Sequence of hERG (KCNH2) (Q12809 whole entry): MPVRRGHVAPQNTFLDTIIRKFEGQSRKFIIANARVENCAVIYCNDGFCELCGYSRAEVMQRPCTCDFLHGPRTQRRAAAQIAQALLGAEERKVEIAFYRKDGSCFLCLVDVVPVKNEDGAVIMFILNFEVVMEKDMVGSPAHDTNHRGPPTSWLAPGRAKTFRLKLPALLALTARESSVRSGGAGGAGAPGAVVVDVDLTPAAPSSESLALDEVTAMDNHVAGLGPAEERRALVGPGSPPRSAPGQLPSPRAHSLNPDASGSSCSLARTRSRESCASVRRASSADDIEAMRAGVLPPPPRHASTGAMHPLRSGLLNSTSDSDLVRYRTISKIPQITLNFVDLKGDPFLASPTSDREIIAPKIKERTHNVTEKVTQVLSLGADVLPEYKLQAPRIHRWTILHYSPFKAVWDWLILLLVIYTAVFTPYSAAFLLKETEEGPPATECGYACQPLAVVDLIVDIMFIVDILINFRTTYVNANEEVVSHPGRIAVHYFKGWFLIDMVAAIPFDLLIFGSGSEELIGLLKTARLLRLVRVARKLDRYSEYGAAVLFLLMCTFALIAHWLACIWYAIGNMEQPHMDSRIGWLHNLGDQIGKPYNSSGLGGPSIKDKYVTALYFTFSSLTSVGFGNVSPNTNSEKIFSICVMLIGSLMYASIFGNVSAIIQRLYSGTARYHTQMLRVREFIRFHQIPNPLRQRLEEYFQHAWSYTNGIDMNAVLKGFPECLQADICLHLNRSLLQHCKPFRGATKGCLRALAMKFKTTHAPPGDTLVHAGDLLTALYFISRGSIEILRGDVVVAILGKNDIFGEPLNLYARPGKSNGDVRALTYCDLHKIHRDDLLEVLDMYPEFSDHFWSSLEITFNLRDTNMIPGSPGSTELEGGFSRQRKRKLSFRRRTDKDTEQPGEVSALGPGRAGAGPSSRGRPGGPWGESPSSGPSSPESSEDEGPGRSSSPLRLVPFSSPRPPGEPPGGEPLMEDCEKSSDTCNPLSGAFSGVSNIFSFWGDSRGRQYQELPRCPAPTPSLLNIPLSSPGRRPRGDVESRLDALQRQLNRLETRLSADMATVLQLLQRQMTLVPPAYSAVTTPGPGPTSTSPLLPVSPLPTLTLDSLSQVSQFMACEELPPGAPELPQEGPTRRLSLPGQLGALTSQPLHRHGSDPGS

[7] = Plasma protein binding in rat; type: ADME, cell-free; conditions: read-out: PPB
[8] = Plasma protein binding in mouse; type: ADME, cell-free; conditions: read-out: PPB (converted)
[9] = Clearance in C57BL/6 mouse at 3 mg/kg, iv or 10 mg/kg, po and measured up to 24 hrs by LC-MS/MS analysis; type: ADME, organism-based; conditions: in vivo
[10] = Apparent permeability across apical to basolateral side in MDCK cells at 2.5 uM for 90 mins; type: ADME, cell-based, Canis lupus familiaris; conditions: dog
[11] = Volume of distribution at steady state in C57BL/6 mouse at 3 mg/kg, iv or 10 mg/kg, po and measured up to 24 hrs by LC-MS/MS analysis; type: ADME, organism-based; conditions: in vivo, read-out: Vdss
[12] = AUC in C57BL/6 mouse at 3 mg/kg, iv or 10 mg/kg, po and measured up to 24 hrs by LC-MS/MS analysis; type: ADME, organism-based; set-up: time < 24 hrs, dose 3 mg/kg, route iv; conditions: in vivo
[13] = Cmax in C57BL/6 mouse at 3 mg/kg, iv or 10 mg/kg, po and measured up to 24 hrs by LC-MS/MS analysis; type: ADME, organism-based; set-up: dose 3 mg/kg, time < 24 hrs, route iv; conditions: in vivo
[14] = Tmax in C57BL/6 mouse at 3 mg/kg, iv or 10 mg/kg, po and measured up to 24 hrs by LC-MS/MS analysis; type: ADME, organism-based; conditions: in vivo
[15] = Half life in C57BL/6 mouse at 3 mg/kg, iv or 10 mg/kg, po and measured up to 24 hrs by LC-MS/MS analysis; type: ADME, organism-based; conditions: in vivo
[16] = Oral bioavailability in C57BL/6 mouse 10 mg/kg or 3 mg/kg, iv and measured up to 24 hrs by LC-MS/MS analysis; type: ADME, organism-based; conditions: in vivo
[17] = Volume of distribution at steady state in Wistar rat at 3 mg/kg, iv or 10 mg/kg, po and measured up to 24 hrs by LC-MS/MS analysis; type: ADME, organism-based; conditions: in vivo, read-out: Vdss
[18] = Clearance in Wistar rat at 3 mg/kg, iv or 10 mg/kg, po and measured up to 24 hrs by LC-MS/MS analysis; type: ADME, organism-based; conditions: in vivo
[19] = AUC in Wistar rat at 3 mg/kg, iv or 10 mg/kg, po and measured up to 24 hrs by LC-MS/MS analysis; type: ADME, organism-based; set-up: dose 3 mg/kg, time < 24 hrs, route iv; conditions: in vivo
[20] = Cmax in Wistar rat at 3 mg/kg, iv or 10 mg/kg, po and measured up to 24 hrs by LC-MS/MS analysis; type: ADME, organism-based; set-up: dose 3 mg/kg, time < 24 hrs, route iv; conditions: in vivo
[21] = Tmax in Wistar rat at 3 mg/kg, iv or 10 mg/kg, po and measured up to 24 hrs by LC-MS/MS analysis; type: ADME, organism-based; conditions: in vivo
[22] = Half life in Wistar rat at 3 mg/kg, iv or 10 mg/kg, po and measured up to 24 hrs by LC-MS/MS analysis; type: ADME, organism-based; conditions: in vivo
[23] = Oral bioavailability in Wistar rat at 10 mg/kg or 3 mg/kg, iv and measured up to 24 hrs by LC-MS/MS analysis; type: ADME, organism-based; conditions: in vivo
[24] = Drug distribution in C57BL/6 mouse plasma 10 mg/kg, po and measured at 1 hrs post dose by LC-MS/MS analysis; type: ADME, organism-based
[25] = Drug distribution in C57BL/6 mouse plasma 10 mg/kg, po and measured at 2 hrs post dose by LC-MS/MS analysis; type: ADME, organism-based
[26] = Drug distribution in C57BL/6 mouse plasma 10 mg/kg, po and measured at 8 hrs post dose by LC-MS/MS analysis; type: ADME, organism-based
[27] = Drug distribution in C57BL/6 mouse adipose tissue 10 mg/kg, po and measured at 1 hrs post dose by LC-MS/MS analysis; type: ADME, organism-based; conditions: read-out: Ct
[28] = Drug distribution in C57BL/6 mouse adipose tissue 10 mg/kg, po and measured at 2 hrs post dose by LC-MS/MS analysis; type: ADME, organism-based; conditions: read-out: Ct
[29] = Drug distribution in C57BL/6 mouse adipose tissue 10 mg/kg, po and measured at 8 hrs post dose by LC-MS/MS analysis; type: ADME, organism-based; conditions: read-out: Ct
[30] = Drug distribution in C57BL/6 mouse liver 10 mg/kg, po and measured at 1 hrs post dose by LC-MS/MS analysis; type: ADME, organism-based; conditions: read-out: Ct
[31] = Drug distribution in C57BL/6 mouse liver 10 mg/kg, po and measured at 2 hrs post dose by LC-MS/MS analysis; type: ADME, organism-based; conditions: read-out: Ct
[32] = Drug distribution in C57BL/6 mouse liver 10 mg/kg, po and measured at 8 hrs post dose by LC-MS/MS analysis; type: ADME, organism-based; conditions: read-out: Ct
[33] = Drug distribution in C57BL/6 mouse skeletal muscle 10 mg/kg, po and measured at 1 hrs post dose by LC-MS/MS analysis; type: ADME, organism-based, Skeletal muscle tissue; conditions: read-out: Ct
[34] = Drug distribution in C57BL/6 mouse skeletal muscle 10 mg/kg, po and measured at 2 hrs post dose by LC-MS/MS analysis; type: ADME, organism-based, Skeletal muscle tissue; conditions: read-out: Ct
[35] = Drug distribution in C57BL/6 mouse skeletal muscle 10 mg/kg, po and measured at 8 hrs post dose by LC-MS/MS analysis; type: ADME, organism-based, Skeletal muscle tissue; conditions: read-out: Ct
[36] = Drug distribution in C57BL/6 mouse brain 10 mg/kg, po and measured at 1 hrs post dose by LC-MS/MS analysis; type: ADME, organism-based; conditions: read-out: Ct
[37] = Drug distribution in C57BL/6 mouse brain 10 mg/kg, po and measured at 2 hrs post dose by LC-MS/MS analysis; type: ADME, organism-based; conditions: read-out: Ct
[38] = target: 2-acylglycerol O-acyltransferase 2 (Homo sapiens) (UniProt Q3SYC2); test: Inhibition of recombinant human MGAT2 expressed in Sf9 cell membrane assessed as inhibition of triglyceride synthesis at 10 uM for 1 hr by LC-MS-based mass spectrophotometric analysis
Sequence of 2-acylglycerol O-acyltransferase 2 (Homo sapiens) (Q3SYC2 whole entry, looked up): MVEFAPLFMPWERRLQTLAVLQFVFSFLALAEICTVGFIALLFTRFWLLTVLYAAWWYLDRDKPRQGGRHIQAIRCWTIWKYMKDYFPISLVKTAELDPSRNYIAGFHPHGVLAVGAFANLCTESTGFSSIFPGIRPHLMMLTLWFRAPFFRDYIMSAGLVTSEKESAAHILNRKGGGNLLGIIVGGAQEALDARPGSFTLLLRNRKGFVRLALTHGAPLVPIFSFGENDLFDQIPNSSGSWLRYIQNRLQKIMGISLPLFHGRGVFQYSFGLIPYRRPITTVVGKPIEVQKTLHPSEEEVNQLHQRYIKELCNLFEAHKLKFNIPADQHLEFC

[39] = Inhibition of human […] in HepG2 cells assessed as inhibition of triglyceride synthesis at 1 uM incubated for 1 hrs followed by 13C-addition of 13C-oleic acid pre-complexed with fatty acid free BSA for 6 hrs by LC/MS/MS analysis; conditions: time 7.0 hrs
[40] = Inhibition of human […] in HepG2 cells assessed as inhibition of triglyceride synthesis at 100 nM incubated for 1 hrs followed by 13C-addition of 13C-oleic acid pre-complexed with fatty acid free BSA for 6 hrs by LC/MS/MS analysis; conditions: time 7.0 hrs
[41] = Inhibition of human […] in HepG2 cells assessed as inhibition of triglyceride synthesis at 300 nM incubated for 1 hrs followed by 13C-addition of 13C-oleic acid pre-complexed with fatty acid free BSA for 6 hrs by LC/MS/MS analysis; conditions: time 7.0 hrs

O=C(O)CC1CCC2(CC1)CCN(c1ccc(NC(=O)c3nnc(Nc4ccc(F)c(F)c4)o3)cn1)CC2
inhibition (Mus musculus [1]): Active
inhibition (Mus musculus [2]): Active

O=C(O)CC1CCC2(CC1)CCC(c1ccc(NC(=O)c3nnc(Nc4ccc(F)c(F)c4)o3)cn1)CC2 (stereo unspecified) [listing 1 of 2 here]
IC50 [3]: 16 nM
remaining at 0.5 h, 1 µM [4]: 71%
remaining at 0.5 h, 1 µM [5]: 88%
remaining at 0.5 h, 1 µM [6]: 100%
inhibition at 2 h, 30 µM (hERG (KCNH2)): 26%
fraction unbound [7]: < 0.01
fraction unbound [8]: 0.03
clearance [9]: 21 mL/min/kg
Papp A→B at 1.5 h, 2.5 µM [10]: 4.7 ×10⁻⁶ cm/s
Vd [11]: 1.8 L/kg
AUC at 24 h [12]: 4.4 µM·h
Cmax [13]: 2600 nM
Tmax [14]: 0.5 h
half-life [15]: 2.1 h
bioavailability [16]: 53%
Vd [17]: 0.5 L/kg
clearance [18]: 1.2 mL/min/kg
AUC at 24 h [19]: 23.7 µM·h
Cmax [20]: 3800 nM
Tmax [21]: 1.3 h
half-life [22]: 6.4 h
bioavailability [23]: 9%
concentration at 1 h [24]: 2760 nM
concentration at 2 h [25]: 1860 nM
concentration at 8 h [26]: 80 nM
concentration at 1 h [27]: 740 nM
concentration at 2 h [28]: 470 nM
concentration at 8 h [29]: 110 nM
concentration at 1 h [30]: 74000 nM
concentration at 2 h [31]: 73000 nM
concentration at 8 h [32]: 28000 nM
concentration at 1 h [33]: 520 nM
concentration at 2 h [34]: 290 nM
concentration at 8 h [35]: 70 nM
concentration at 1 h [36]: 20 nM
concentration at 2 h [37]: 60 nM

O=C(Nc1ccc(C2CCC3(CC2)CC(C(=O)O)C3)cc1)c1nnc(Nc2ccc(F)c(F)c2)o1 (stereo unspecified)
inhibition [38]: 16%
inhibition [39]: 96%
inhibition [40]: 88%
inhibition [41]: 94%

O=C(O)CC1CCC2(CC1)CCC(c1ccc(NC(=O)c3nnc(Nc4ccc(F)c(F)c4)o3)cn1)CC2 (stereo unspecified) [listing 2 of 2 here]
inhibition [38]: 16%
inhibition [39]: 90%
inhibition [40]: 55%
inhibition [41]: 82%
